Test results reported in patent publication US9028856B2, “Synergistic pesticide compositions” (priority 2008, dated 2015).
Where two headings read alike, the source gives them in different places. Marks after values point to notes of the source that are not given here.

Assays:
[1] = system: bait averse/resistant German cockroach (T-164 strain); assay: Knockdown/mortality of male cockroaches under continuous exposure on treated glazed tile; type: in vivo, Blattella germanica; parameters: Average % Knockdown & Mortality after 5 hr / Average % Knockdown & Mortality after 30 min: concentration or dose not given beside the values; conditions: glazed tile
[2] = system: bedbug (Cimex lectularius); assay: Contact efficacy against bedbugs on various surfaces (wood, PVC, wallpaper, mattress, glass); type: in vivo; conditions: for efficacy on wood, PVC, wallpaper, mattress and glass (summary in words): Example 106, imidacloprid 0.008% or 0.0016% (30 and 6 mg a.i./m^2)
Description: Adult Cimex lectularius, susceptible strain, were used. A solution of the active ingredient in acetone was prepared. In the same mode a complete […]. All these works were done under drawing off conditions. After evaporation of the acetone (30′) the dishes were closed by a glass lid and transferred into the test room.
One day later ten bedbugs, anaesthetized with CO2, were counted into each dish. At regular intervals, knock down was recorded (cumulatively).
The same methodology was used as was used in Example 105.

[3] = system: Blattella germanica, susceptible strain; assay: Contact efficacy against cockroaches on glazed tiles (acetone solutions); type: in vivo; conditions: mean of three replicates; for mortality at 60 mg/m2: imidacloprid 0.1%, 60 mg/m^2, glazed tile; for mortality at 310 mg/m2: imidacloprid 0.5%, 310 mg/m^2, glazed tile; for mortality at 620 mg/m2: imidacloprid 1%, 620 mg/m^2, glazed tile
Description: Male Blattella germanica, susceptible strain, were used. A solution of the active ingredient in acetone pipetted onto the corresponding tile on an area of 12.5 cm×12.5 cm.
One day later, a glass ring (diameter 9.5 cm, height 5.5 cm) inner wall treated with talcum was placed on the tile and five male German cockroaches were introduced. Knock down and mortality, respectively, were evaluated after 30′, 1 h, 3 h and 1 d. A water soaked cotton pad was added after 3 hours.
Each trial consisted of three replicates of which the mean values are calculated.

[4] = system: bait averse/resistant German cockroach (IHOP strain), Blattella germanica; assay: Knockdown/mortality of male cockroaches under continuous exposure on treated glazed tile; type: in vivo; conditions: Table 28, aqueous deltamethrin/adjuvant, IHOP strain
Description: Treatments were allowed to dry overnight. […] Treatments were replicated a minimum of three times. Evaluations for cockroach knockdown/mortality were made at various intervals for 1 hour and at 24 hours after exposure.
Treatments were allowed to dry overnight. […] Evaluations for cockroach knockdown/mortality were made at various intervals and at 60 minutes after exposure.
Treatments were allowed to dry overnight. […] Treatments were replicated a minimum of three times.

[5] = system: Culex quinquefasciatus mosquito; assay: USDA Petri Dish Method, 3 min exposure to dipped fiberglass window screen; type: in vivo; conditions: Table 29, aqueous deltamethrin/adjuvant
Description: MATERIALS AND METHODS: Aqueous solutions of 1% deltamethrin with and without adjuvant were prepared using product sold under the tradename Suspend® SC. […] Pre-cut fiberglass screen (5″×5″, or 161.3 cm^2) were dipped in each treatment solution and excessive solution was allowed to drain completely. Weight of the solution coated on the screen was then determined. The treated screen was then allowed to air-dry overnight. USDA Petri Dish Method was used as initial screening protocol. Twenty, 4-6 day old female Culex quinquefasciatus were exposed to treated window screen for 3 minutes and then moved onto a clean untreated white paper index card. Treatments were replicated a minimum of three times. Mosquito knockdown was evaluated at 3 minute intervals for the first 15 minutes and then at 5 minute intervals for the remainder of an hour. A small cotton ball soaked in sucrose solution was added on the screen top of the petri-dish as a drinking source. Mortality was evaluated at 24 hours after exposure.

[6] = Glass, 0.008% imidacloprid (30 mg/m^2) in acetone
[7] = Mattress, 0.0016% imidacloprid (6 mg/m^2) in acetone
[8] = Mattress, 0.008% imidacloprid (30 mg/m^2) in acetone
[9] = PVC, 0.0016% imidacloprid (6 mg/m^2) in acetone
[10] = PVC, 0.008% imidacloprid (30 mg/m^2) in acetone
[11] = Wallpaper, 0.0016% imidacloprid (6 mg/m^2) in acetone
[12] = Wallpaper, 0.008% imidacloprid (30 mg/m^2) in acetone
[13] = Wood, 0.0016% imidacloprid (6 mg/m^2) in acetone
[14] = Wood, 0.008% imidacloprid (30 mg/m^2) in acetone
[15] = 0.5 h, read-out: Average % knockdown & mortality after 30 min
[16] = 1 h, read-out: Average % knockdown & mortality after 60 min
[17] = 3 h, read-out: Average % knockdown & mortality after 3 hr
[18] = 24 h, read-out: Average % knockdown & mortality after 24 hr

## O=[N+]([O-])NC1=NCCN1Cc1ccc(Cl)nc1 [imidacloprid]
[1]; 45 min, Table 24, imidacloprid/dibutyl sebacate (DBS) in acetone, T-164 strain
  Average % Knockdown & Mortality after 45 min: 0%
[1]; 3 hr, Table 23, imidacloprid/tritylchloride in acetone, T-164 strain
  Average % Knockdown & Mortality after 3 hr: 7%
[1]; Table 5 (Ex. 2), continuous exposure
  Average % Knockdown & Mortality after 15 min: 0%
[1]; Table 6 (Ex. 3), continuous exposure
  Average % Knockdown & Mortality after 15 min: 0%
[1]; Table 9 (Ex. 6), continuous exposure
  Average % Knockdown & Mortality after 15 min: 0%
[1]; Table 11 (Ex. 8), continuous exposure
  Average % Knockdown & Mortality after 15 min: 0%
[1]; Table 13 (Ex. 10), continuous exposure
  Average % Knockdown & Mortality after 4 hr: 0%
[1]; Table 15 (Ex. 12), continuous exposure
  Average % Knockdown & Mortality after 4 hr: 20%
[1]; Table 17 (Ex. 14), continuous exposure
  Average % Knockdown & Mortality after 5 hr: 19%
[1]; Table 18 (Ex. 15), continuous exposure
  Average % Knockdown & Mortality after 4 hr: 47%
[1]; Table 21 (Ex. 18), continuous exposure
  Average % Knockdown & Mortality after 3 hr: 7%
[2]
  efficacy on wood, PVC, wallpaper, mattress and glass (summary in words): No efficacy was found on wood, PVC, wallpaper and mattress
[2]; listed as 0.008% imidacloprid
  efficacy on wood, PVC, wallpaper, mattress and glass (summary in words): On glass, 0.008% imidacloprid alone acted relatively fast and had killed all bed bugs within one day
[2]; [6]
  % knock down or moribund after 1 h: 0%
  % knock down or moribund after 2 h: 100* %
  % knock down or moribund after 4 h: 85%
  % knock down or moribund after 6 h: 90%
  % knock down or moribund after 1 d: 100%
  % knock down or moribund after 2 d: 100%
  % knock down or moribund after 6 d: 100%
[2]; [7]
  % knock down or moribund after 1 h: 0%
  % knock down or moribund after 2 h: 0%
  % knock down or moribund after 4 h: 0%
  % knock down or moribund after 6 h: 0%
  % knock down or moribund after 1 d: 0%
  % knock down or moribund after 2 d: 0%
  % knock down or moribund after 6 d: 0%
[2]; [8]
  % knock down or moribund after 1 h: 0%
  % knock down or moribund after 2 h: 0%
  % knock down or moribund after 4 h: 0%
  % knock down or moribund after 6 h: 0%
  % knock down or moribund after 1 d: 0%
  % knock down or moribund after 2 d: 0%
  % knock down or moribund after 6 d: 0%
[2]; [9]
  % knock down or moribund after 1 h: 0%
  % knock down or moribund after 2 h: 0%
  % knock down or moribund after 4 h: 0%
  % knock down or moribund after 6 h: 0%
  % knock down or moribund after 1 d: 0%
  % knock down or moribund after 2 d: 0%
  % knock down or moribund after 6 d: 20%
[2]; [10]
  % knock down or moribund after 1 h: 0%
  % knock down or moribund after 2 h: 0%
  % knock down or moribund after 4 h: 0%
  % knock down or moribund after 6 h: 0%
  % knock down or moribund after 1 d: 0%
  % knock down or moribund after 2 d: 0%
  % knock down or moribund after 6 d: 40%
[2]; [11]
  % knock down or moribund after 1 h: 0%
  % knock down or moribund after 2 h: 0%
  % knock down or moribund after 4 h: 0%
  % knock down or moribund after 6 h: 0%
  % knock down or moribund after 1 d: 0%
  % knock down or moribund after 2 d: 0%
  % knock down or moribund after 6 d: 0%
[2]; [12]
  % knock down or moribund after 1 h: 0%
  % knock down or moribund after 2 h: 0%
  % knock down or moribund after 4 h: 0%
  % knock down or moribund after 6 h: 0%
  % knock down or moribund after 1 d: 0%
  % knock down or moribund after 2 d: 0%
  % knock down or moribund after 6 d: 0%
[2]; [13]
  % knock down or moribund after 1 h: 0%
  % knock down or moribund after 2 h: 0%
  % knock down or moribund after 4 h: 0%
  % knock down or moribund after 6 h: 0%
  % knock down or moribund after 1 d: 0%
  % knock down or moribund after 2 d: 0%
  % knock down or moribund after 6 d: 10%
[2]; [14]
  % knock down or moribund after 1 h: 0%
  % knock down or moribund after 2 h: 0%
  % knock down or moribund after 4 h: 0%
  % knock down or moribund after 6 h: 0%
  % knock down or moribund after 1 d: 0%
  % knock down or moribund after 2 d: 0%
  % knock down or moribund after 6 d: 0%
[3]; [15]
  mortality at 60 mg/m2: 0%
  mortality at 310 mg/m2: 0%
  mortality at 620 mg/m2: 0%
[3]; [16]
  mortality at 60 mg/m2: 0%
  mortality at 310 mg/m2: 0%
  mortality at 620 mg/m2: 0%
[3]; [17]
  mortality at 60 mg/m2: 20%
  mortality at 310 mg/m2: 0%
  mortality at 620 mg/m2: 13%
[3]; [18]
  mortality at 60 mg/m2: 40%
  mortality at 310 mg/m2: 0%
  mortality at 620 mg/m2: 40%

## CC1(C)[C@H](C(=O)O[C@H](C#N)c2cccc(Oc3ccccc3)c2)[C@@H]1C=C(Br)Br [deltamethrin (1%)]
[4]; 10 min
  Average % Mortality after 10 min: 20%
[4]; 30 min
  Average % Mortality after 30 min: 93%
[4]; 60 min
  Average % Mortality after 60 min: 100%
[4]; 24 hr
  Average % Mortality after 24 hr: 100%
[5]; 15 min
  Average % Knockdown & Mortality after 15 min: 0%
[5]; 30 min
  Average % Knockdown & Mortality after 30 min: 2%
[5]; 45 min
  Average % Knockdown & Mortality after 45 min: 3%
[5]; 60 min
  Average % Knockdown & Mortality after 60 min: 8%
[5]; 4 hr
  Average % Knockdown & Mortality after 4 hr: 52%
[5]; 24 hr
  Average % Knockdown & Mortality after 24 hr: 86%
